Data from patent US20200216432A1, “SULFONAMIDE DERIVATIVES AS STAT3 INHIBITORS FOR THE TREATMENT OF PROLIFERATIVE DISEASES” (King's College London, priority 2017, published 2020).

Legend:
[1] = target: unphosphorylated STAT3 monomer (uSTAT3) SH2 domain (Homo sapiens, UniProt P40763); assay: Fluorescence polarisation assay for the inhibition of STAT3 dimerisation; format: binding; conditions: 350 nM uSTAT3, 10 nM FAM-pYLPQTV, 100 μM ligand; average of triplicate
Text: Fluorescence Polarisation Assay for the Inhibition of STAT3 Dimerisation
The compounds were subjected to an in vitro fluorescent polarisation (FP)-based primary PPI binding screen to assess their ability to inhibit STAT3 dimerisation by interacting with the SH2 domain. In this FP assay, the unphosphorylated STAT3 monomer (uSTAT3) and a surrogate peptide FAM-pYLPQTV were used to form a ‘pseudo-dimer’. The assay is based on the concept that the compounds were expected to displace the surrogate peptide from the uSTAT3 resulting in a fluorescent read out.
Specifically, for the FP assay, a black (CORNING™) 96 well plate was thoroughly washed with distilled water and allowed to dry. A 100 nM FAM-pYLPQTV working solution was prepared from 10 μM FAM-pYLPQTV stock solution (in DMSO) using PBS pH 7.4 Buffer. 10 μl FAM-pYLPQTV was added to 350 nM uSTAT3 protein, the final concentration of protein in each well, in 90 μl PBS buffer pH 7.4. The MP value of the surrogate dimer complex was measured using a fluorescent plate reader (Envision™, Perkin Elmer™, USA), which provided the base MP value. The inhibitor solution was then added to the well and the assay plate was placed on a shaker for 5 minutes. The MP value for each well was then measured again. A shift in fluorescent values was observed due to displacement of the fluorescently-labelled surrogate peptide by the inhibitors, and the average inhibition for each inhibitor could be calculated as described below:
Base MP value (X) for each well=MP value of Protein and Probe (350 nm STAT3+10 nM FAM-pYLPQTV)−MP value of free FAM-pYLPQTV
Inhibitor MP value (Y) for each well=MP value of Protein+Probe+Inhibitor (350 nm uSTAT3+10 nM FAM-pYLPQTV+2 μL Inhibitor)−MP value of free FAM-pYLPQTV with 2 μL DMSO
% inhibition by any ligand/peptide=(X−Y)/X*100
For comparison purpose, the % inhibition produced by 100 μM pYLKTKF was considered to be 100%, and the inhibition produced by different ligands was reported as relative to 100 μM pYLKTKF.
% Inhibition produced by 100 μM pYLKTKF=A
% Inhibition produced by 100 μM Ligand=B
Relative inhibition (%)=B/A*100
The experiment was carried out in triplicate, and average values were taken as the measure of PPI inhibition.

[2] = test system: MDA-MB-231 breast (STAT3-dependent) cancer cell line; assay: MTT cell viability assay, MDA-MB-231; format: cell-based, human; conditions: for IC50: MTT, 48 hours exposure (table title); for Selectivity ratio: STAT3-null A4 versus STAT3-dependent MDA-MB-231
Text: (§1) MTT Cell viability assay with both MDA-MB-231 breast (STAT3-dependent) and A4 (STAT3-null) cancer cell lines.
(§2) After observing significant STAT3 dimerisation inhibitory activity in the preliminary FP assay, the target ligand and related fragments were progressed to an MTT cytotoxicity assay to evaluate in a STAT3-dependent tumour cell line (MDA MB 231, breast cancer) and a STAT3 null A4 cell line. It was anticipated that the compounds would show selective toxicity towards the STAT3-dependent MDA MB 231 cell line and would have lost activity in the STAT3 null A4 cell line if the mechanism of action was STAT3-mediated.
(§3) For each cell line, a total of 10,000 cells were seeded for 24 hours before addition of the inhibitors. The cells were grown in normal cell culture conditions at 37° C. under a 5% CO2 humidified atmosphere using an appropriate medium. The cell count was adjusted to 10^5 cells/ml, and 5,000-20,000 cells were added per well depending on the cell line. The cells were then incubated for 24 hours, and 1 μl aliquots of the inhibitors were added to the wells in triplicate. […] Absorbance was quantified by spectrophotometry at A=570 nm (Envision™ Plate Reader, PerkinElmer™, USA). IC50 values were calculated by a dose-response analysis using the Prism GraphPad Prism® software package.

[3] = test system: A4 (STAT3-null) cancer cell line; assay: MTT cell viability assay, A4; format: cell-based
Text: as §1, §2, §3

[4] = 48 hours exposure (table title)

Chain of unphosphorylated STAT3 monomer (uSTAT3) SH2 domain (P40763 whole entry, the tested form may be a part): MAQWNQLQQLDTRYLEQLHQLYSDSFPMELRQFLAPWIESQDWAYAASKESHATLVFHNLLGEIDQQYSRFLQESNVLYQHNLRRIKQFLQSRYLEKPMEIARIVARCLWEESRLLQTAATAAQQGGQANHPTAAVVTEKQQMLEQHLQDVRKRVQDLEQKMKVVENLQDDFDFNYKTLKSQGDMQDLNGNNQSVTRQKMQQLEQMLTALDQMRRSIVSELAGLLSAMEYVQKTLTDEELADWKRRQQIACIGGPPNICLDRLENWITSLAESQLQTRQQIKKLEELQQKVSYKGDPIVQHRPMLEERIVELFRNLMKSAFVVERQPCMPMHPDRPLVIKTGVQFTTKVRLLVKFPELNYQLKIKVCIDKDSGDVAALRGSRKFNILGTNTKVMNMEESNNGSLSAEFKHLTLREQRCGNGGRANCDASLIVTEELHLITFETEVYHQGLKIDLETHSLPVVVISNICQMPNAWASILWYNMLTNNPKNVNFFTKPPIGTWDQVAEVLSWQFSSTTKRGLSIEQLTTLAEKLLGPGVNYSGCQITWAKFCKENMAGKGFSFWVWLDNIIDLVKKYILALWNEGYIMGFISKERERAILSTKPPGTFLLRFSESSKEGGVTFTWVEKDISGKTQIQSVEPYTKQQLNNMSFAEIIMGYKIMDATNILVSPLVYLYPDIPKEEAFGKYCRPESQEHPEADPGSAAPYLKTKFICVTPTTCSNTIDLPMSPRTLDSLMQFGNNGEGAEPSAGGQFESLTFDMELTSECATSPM

SMILES | inhibition at 100 µM [1] [%] | IC50 ([2]; Homo sapiens, MDA-MB-231, 48 h) [µM] | IC50 ([3]; exposure (table title)) [µM] | Selectivity ratio [2] | % Inhibition [1] [%] | IC50 [2] [µM] | IC50 [3, 4] [µM]
COC(=O)c1ccc(N(C)S(=O)(=O)c2cc(C(=O)Nc3ccc4c(ccn4Cc4ccccc4)c3)sc2-c2ccc(N3CCCCC3)cc2)cc1 [Compound 20, methyl 4-((5-((1-benzyl-1H-indol-5-yl)carbamoyl)-N-methyl-2-(4-(piperidin-1-yl)phenyl)thiophene)-3-sulfonamido)benzoate] | 35.6 | 10.5 | 58.8 | 5.62 | – | – | –
COC(=O)c1ccc(N(C)S(=O)(=O)c2cc(C(=O)Nc3ccc(N4CCCCC4)cc3)sc2Br)cc1 [Compound 21, methyl 4-((2-bromo-N-methyl-5-((4-(piperidin-1-yl)phenyl)carbamoyl)thiophene)-3-sulfonamido)benzoate] | 22.7 | 23.5 | 64.7 | 2.75 | – | – | –
COC(=O)c1ccc(N(C)S(=O)(=O)c2cc(C(=O)Nc3cccc(N4CCOCC4)c3)sc2Br)cc1 [Compound 22, methyl 4-((2-bromo-N-methyl-5-((3-morpholinophenyl)carbamoyl)thiophene)-3-sulfonamido)benzoate] | 11.7 | 34.4 | 73.5 | 2.13 | – | – | –
COC(=O)c1ccc(N(C)S(=O)(=O)c2cc(C(=O)Nc3ccc(CN4CCOCC4)cc3)sc2Br)cc1 [Compound 23, methyl 4-((2-bromo-N-methyl-5-((4-(morpholinomethyl)phenyl)carbamoyl)thiophene)-3-sulfonamido)benzoate] | 31.3 | 12.5 | 54.3 | 4.34 | – | – | –
COC(=O)c1ccc(N(C)S(=O)(=O)c2cc(C(=O)NCc3ccc(N4CCOCC4)cc3)sc2Br)cc1 [Compound 24, methyl 4-((2-bromo-N-methyl-5-((4-morpholinobenzyl)carbamoyl)thiophene)-3-sulfonamido)benzoate] | 9.42 | 34.5 | 33.2 | 0.96 | – | – | –
COC(=O)c1ccc(N(C)S(=O)(=O)c2cc(C(=O)NCc3ccc(OCCN4CCOCC4)cc3)sc2Br)cc1 [Compound 25, methyl 4-((2-bromo-N-methyl-5-((4-(2-morpholinoethoxy)benzyl)carbamoyl)thiophene)-3-sulfonamido)benzoate] | – | – | – | – | 49.62 | 3.6 | 43.6
COC(=O)c1ccc(N(C)S(=O)(=O)c2cc(C(=O)NCc3ccc(N4CCCCC4)cc3)sc2Br)cc1 [Compound 26, methyl 4-((2-bromo-N-methyl-5-((4-(piperidin-1-yl)benzyl)carbamoyl)thiophene)-3-sulfonamido)benzoate] | 8.24 | 14.5 | 25.8 | 1.77 | – | – | –
COC(=O)c1ccc(NC(=O)c2cc(S(=O)(=O)N(C)c3ccc(C(=O)OC)cc3)c(Br)s2)cc1 [Compound 27, methyl 4-(5-bromo-4-(N-(4-(methoxycarbonyl)phenyl)-N-methylsulfamoyl)thiophene-2-carboxamido)benzoate] | 20.3 | 8.7 | 58.3 | 6.70 | – | – | –
COC(=O)c1ccc(N(C)S(=O)(=O)c2cc(C(=O)Nc3ccc(OCCN4CCOCC4)cc3)sc2Br)cc1 [Compound 29, methyl 4-((2-bromo-N-methyl-5-((4-(2-morpholinoethoxy)phenyl)carbamoyl)thiophene)-3-sulfonamido)benzoate] | – | – | – | – | 42.90 | 5.8 | 53.6
COC(=O)c1ccc(N(C)S(=O)(=O)c2cc(C(=O)Nc3ccc(N4CCOCC4)nc3)sc2Br)cc1 [Compound 30, methyl 4-((2-bromo-N-methyl-5-((6-morpholinopyridin-3-yl)carbamoyl)thiophene)-3-sulfonamido)benzoate] | 19.5 | 24.6 | 82.3 | 3.34 | – | – | –
COC(=O)c1ccc(N(C)S(=O)(=O)c2cc(C(=O)NCc3ccc(CN4CCOCC4)cc3)sc2Br)cc1 [Compound 31, methyl 4-((2-bromo-N-methyl-5-((4-(morpholinomethyl)benzyl)carbamoyl)thiophene)-3-sulfonamido)benzoate] | 27.3 | 32.5 | 24.7 | 0.76 | – | – | –

Continued by falling IC50 ([2]; Homo sapiens, MDA-MB-231, 48 h), values first:

inhibition at 100 µM [1] [%] | IC50 ([2]; Homo sapiens, MDA-MB-231, 48 h) [µM] | IC50 ([3]; exposure (table title)) [µM] | SMILES | Selectivity ratio [2] | % Inhibition [1] [%] | IC50 [2] [µM] | IC50 [3, 4] [µM]
29.1 | 7.8 | 45.3 | COC(=O)c1ccc(N(C)S(=O)(=O)c2cc(C(=O)Nc3ccc4c(ccn4C)c3)sc2Br)cc1 [Compound 36, methyl 4-((2-bromo-N-methyl-5-((1-methyl-1H-indol-5-yl)carbamoyl)thiophene)-3-sulfonamido)benzoate] | 5.80 | – | – | –
6.18 | 7.65 | 74.5 | COC(=O)c1ccc(N(C)S(=O)(=O)c2cc(C(=O)NCc3ccc(N4CCN(C)CC4)cc3)sc2Br)cc1 [Compound 32, methyl 4-((2-bromo-N-methyl-5-((4-(4-methylpiperazin-1-yl)benzyl)carbamoyl)thiophene)-3-sulfonamido)benzoate] | 9.73 | – | – | –
35.4 | 7.32 | 65.4 | COC(=O)c1ccc(N(C)S(=O)(=O)c2cc(C(=O)Nc3ccc(Cc4nc5cc(C)ccc5[nH]4)cc3)sc2Br)cc1 [Compound 34, methyl 4-((2-bromo-N-methyl-5-((4-((5-methyl-1H-benzo[d]imidazol-2-yl)methyl)phenyl)carbamoyl)thiophene)-3-sulfonamido)benzoate] | 8.93 | – | – | –
51.3 | 6.5 | 42.7 | COC(=O)c1ccc(N(C)S(=O)(=O)c2cc(C(=O)Nc3cccc(N4CCCCC4)c3)sc2Br)cc1 [Compound 28, methyl 4-((2-bromo-N-methyl-5-((3-(piperidin-1-yl)phenyl)carbamoyl)thiophene)-3-sulfonamido)benzoate] | 6.56 | – | – | –
42.3 | 4.45 | 94.2 | COC(=O)c1ccc(N(C)S(=O)(=O)c2cc(C(=O)NCc3ccc(CN4CCCCC4)cc3)sc2Br)cc1 [Compound 33, methyl 4-((2-bromo-N-methyl-5-((4-(piperidin-1-ylmethyl)benzyl)carbamoyl)thiophene)-3-sulfonamido)benzoate] | 21.16 | – | – | –
33.3 | 4.45 | 38.7 | COC(=O)c1ccc(N(C)S(=O)(=O)c2cc(C(=O)Nc3ccc4[nH]c(Cc5ccccc5)nc4c3)sc2Br)cc1 [Compound 35, methyl 4-((5-((2-benzyl-1H-benzo[d]imidazol-5-yl)carbamoyl)-2-bromo-N-methylthiophene)-3-sulfonamido)benzoate] | 8.69 | – | – | –
43.7 | 3.2 | 34.6 | COC(=O)c1ccc(N(C)S(=O)(=O)c2cc(C(=O)Nc3cccc(N4CCCCC4)c3)sc2-c2ccc(N3CCCCC3)cc2)cc1 [Compound 19, methyl 4-((N-methyl-2-(4-(piperidin-1-yl)phenyl)-5-((3-(piperidin-1-yl)phenyl)carbamoyl)thiophene)-3-sulfonamido)benzoate] | 10.81 | – | – | –
